Each structure is given as a SMILES string.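 Assay format: 96-well plates, 48-hour exposure. GI50: concentration for 50% inhibition of growth. TGI: concentration producing complete growth inhibition.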 Bounds are passed on as bounds.

Holding throughout (assay): DTP human tumour cell line panel, 48 h
Test [1] concerns SF-295 CNS.
For test [2], the system named is KM12 colon.
Test [3] has as its system UO-31 renal.
Test [4] concerns SK-MEL-2 melanoma.
The test system of test [5] is CAKI-1 renal.
Test [6] relates to A549 NSCLC.
In test [7] the test system is EKVX NSCLC.
The test system of test [8] is MDA-MB-435.

For orientation: GI50 means the concentration at which growth is held to half of that of the control. The TGI is the concentration at which net growth stops. For the compound `C=C(c1ccc(C(=O)N(C)c2ccccc2N)cc1)C(C)N1C(=O)[C@H]2CCCN2C(=O)c2ccccc21` (stereo partly drawn), the GI50 was above 100 µM in test [1]; above 100 µM in test [2]; 53.4 µM in test [3]; 99.5 µM in test [4]; 32.8 µM in test [5]; 68.8 µM in test [6]. Moreover, the GI50 is 80.6 µM in test [7] and 38.3 µM in test [8]. The concentration for total growth inhibition (TGI) in test [1], in test [2], in test [3], in test [4], in test [5] and in test [6] was above 100 µM in each case. Besides, the TGI in test [7] and in test [8] was above 100 µM in each case.
As to `O=C(O)c1cc2cc(OCc3ccccc3)c(OCc3ccccc3)cc2[nH]1`, the GI50 in test [1] was 17.6 µM; in test [2], 19.3 µM; in test [3] it was 13.8 µM; in test [4], 21.4 µM; in test [5] it was 20.7 µM; in test [7], 17.8 µM. In addition, the GI50 in test [8] was 19.2 µM. The concentration for total growth inhibition (TGI) was 40.1 µM in test [1]; 36.2 µM in test [2]; 27.6 µM in test [3]; 44.7 µM in test [4]; 51.3 µM in test [5]; 38.9 µM in test [7]. For the same compound, the TGI in test [8] was 47.9 µM.
`O=C(O)c1ccc(N/C=C2\C(=O)c3ccccc3OC2O)cc1O` (stereo not drawn): the GI50 in test [1] was 5.96 µg/mL; in test [2], 23.4 µg/mL; in test [3], 6.68 µg/mL; in test [4], 23.5 µg/mL; in test [5] it was 10.8 µg/mL; in test [6] it was 55.1 µg/mL. Moreover, the results for the GI50 in test [7] and in test [8] were 23.9 µg/mL and 20.2 µg/mL, respectively. In addition, the TGI in test [1] was 28.7 µg/mL; in test [2], 48.5 µg/mL; in test [3], 36.4 µg/mL; in test [4] it was 51.1 µg/mL; in test [5], 32.5 µg/mL; in test [6] it was above 150 µg/mL. Moreover, the total growth inhibition concentration (TGI) in test [7] worked out at 82.5 µg/mL; in test [8] it was 68.4 µg/mL.
As for `COc1cccc2c1C(=O)c1c(O)c3c(c(O)c1C2=O)C[C@@](O)(C(=O)CO)C[C@@H]3OC1C[C@H](N)[C@H](O)[C@H](C)O1` (stereo partly drawn), the 50% growth inhibitory concentration (GI50) in test [1] is 0.0371 µM; in test [2] it was 0.135 µM; in test [3], 0.152 µM; in test [4] it was 0.141 µM; in test [6], 0.0355 µM; in test [7], 0.201 µM. Besides, the GI50 in test [8] is 0.109 µM. Moreover, the total growth inhibition concentration (TGI) in test [1] was 0.372 µM; in test [2] it was 6.27 µM; in test [3] it was 1.14 µM; in test [4], 5.47 µM; in test [5] it was 4.18 µM; in test [6], above 50 µM. Also, the TGI in test [7] came out at 5.28 µM; in test [8] it was 0.574 µM.
With `S=C1Nc2ccc(Cl)cc2C2(c3ccccc3)N3CCN=C3NN12` (stereo not drawn), the GI50 is 28.6 µM in test [1]; 52.1 µM in test [2]; 37.5 µM in test [3]; 48.8 µM in test [5]; above 100 µM in test [6]; 55.7 µM in test [7]. In test [8], the GI50 is 43.2 µM. The TGI in test [1], in test [2], in test [3], in test [5], in test [6] and in test [7] was above 100 µM each time. Further, the concentration for total growth inhibition (TGI) in test [8] is above 100 µM.
On to `O=C(Cc1cccc(OC(F)(F)F)c1)Nc1ccc(CCCCc2nnc(NC(=O)Cc3ccccn3)s2)nn1`, for which the GI50 in test [1] was 11.5 µM; in test [2] it was 14.1 µM; in test [3], 2.85 µM; in test [4], 19 µM; in test [5] it was 4.81 µM; in test [7], 13.3 µM. In addition, the GI50 in test [8] is 30.4 µM. Further, the TGI in test [1] is 31.4 µM; in test [2], above 100 µM; in test [3], 28.9 µM; in test [4] it was 47.5 µM; in test [5], above 100 µM; in test [7] it was 68.7 µM. Also, the TGI in test [8] was above 100 µM.
Take `O=C(N/N=C/c1ccccc1O)C(=O)Nc1ccc(F)cc1`: the GI50 is 1.81 µM in test [1]; 6.97 µM in test [2]; 2.18 µM in test [3]; 22.9 µM in test [4]; 2.24 µM in test [5]; 3.67 µM in test [6]. For the same compound, the GI50 in test [8] is 8.4 µM. Also, the concentration for total growth inhibition (TGI) in test [1] is 15.5 µM; in test [2], above 100 µM; in test [3] it was 54.1 µM; in test [4], above 100 µM; in test [5] it was 22 µM; in test [6], above 100 µM. The same compound registered a TGI in test [8] above 100 µM.
On to `COc1ccc(/C=C\c2cc(OC)c(OC)c(OC)c2)cc1OC(=O)CCC(=O)O`, for which the TGI in test [1] is 67.7 µM; in test [3], above 100 µM; in test [4] it was above 100 µM; in test [5], above 100 µM; in test [6], above 100 µM; in test [7], above 100 µM. The compound also came in with a TGI in test [8] below 0.0001 µM. In addition, the 50% growth inhibitory concentration (GI50) was below 0.0001 µM in test [3], below 0.0001 µM in test [5], 0.157 µM in test [6] and 51.5 µM in test [7].
For the compound `COc1cc(-c2nc3sc4c(c3c(=O)[nH]2)CCCCCC4)cc(OC)c1OC`, the GI50 is 0.692 µM in test [1]; 1.21 µM in test [2]; 2.07 µM in test [3]; 1.11 µM in test [4]; 1.23 µM in test [5]; 1.95 µM in test [6]. Also, the GI50 in test [8] was 0.115 µM. The TGI in test [1] was 6.53 µM; in test [2] it was above 33.2 µM; in test [3] it was above 33.2 µM; in test [4] it was 7.5 µM; in test [5] it was above 33.2 µM; in test [6], above 33.2 µM. In test [8], this compound displayed a concentration for total growth inhibition (TGI) of 0.611 µM.
